Test results from the C3SDB collision cross section collection.
Several values for one entry are separate records, joined by “and”; a condition that tells them apart may be missing. Equal values may be shown once.

Settings: instrument: DT, single field, calibrated with ESI Low Concentration Tuning Mix (Agilent)

Row | Structure (SMILES) | collision cross section (N2) ([M+H]+) | collision cross section (N2) ([M+Na]+) | collision cross section (N2) ([M-H]-) | further results
1 | O=c1nc[nH]c2c1ncn2[C@@H]1O[C@H](COP(=O)(O)OP(=O)(O)O)[C@@H](O)[C@H]1O [INOSINE 5'-DIPHOSPHATE] | 186.6 Å² | 184 Å² | – | collision cross section (N2) ([M+Na-2H]-): 180 Å²
2 | O=c1nc[nH]c2c1ncn2[C@@H]1O[C@H](COP(=O)(O)OP(=O)(O)OP(=O)(O)O)[C@@H](O)[C@H]1O [INOSINE TRIPHOSPHATE] | 193.6 Å² | 197 Å² | 189.2 Å² | collision cross section (N2) ([M+Na-2H]-): 182.8 Å²
3 | OC[C@H]1O[C@@H](O[C@H]2[C@H](O)[C@@H](O)[C@H](O)O[C@@H]2CO)[C@H](O)[C@@H](O)[C@H]1O [LACTOSE] | – | 175.3 Å² | 176.9 Å² | collision cross section (N2) ([M+K]+): 178.6 Å²
4 | OC1OC[C@@H](O)[C@H](O)[C@@H]1O (some centres not stated) [LYXOSE] | – | 136.8 Å² | – | –
5 | CSC[C@H]1O[C@@H](n2cnc3c(N)ncnc32)[C@H](O)[C@@H]1O [METHYLTHIOADENOSINE] | 162.5 Å² and 170.7 Å² | 172.4 Å² | 166.9 Å² | –
6 | CC(=O)NCCCNCCCCNCCCN [N1-ACETYLSPERMINE] | 158 Å² | 162 Å² | – | –
7 | CC(=O)NC(Cc1ccccc1)C(=O)O (configuration not stated) [N-ACETYLPHENYLALANINE] | – | 149.4 Å² | 146.9 Å² | –
8 | NC(=O)C1=CN([C@@H]2O[C@H](COP(=O)(O)OP(=O)(O)OC[C@H]3O[C@@H](n4cnc5c(N)ncnc54)[C@H](OP(=O)(O)O)[C@@H]3O)[C@@H](O)[C@H]2O)C=CC1 [NADPH] | – | – | 246.7 Å² | collision cross section (N2) ([M+Na-H]+): 240.5 Å²; collision cross section (N2) ([M+]+): 232.2 Å²
9 | NC(=O)c1ccc[n+]([C@@H]2O[C@H](COP(=O)(O)OP(=O)(O)OC[C@H]3O[C@@H](n4cnc5c(N)ncnc54)[C@H](OP(=O)(O)O)[C@@H]3O)[C@@H](O)[C@H]2O)c1 [NADP] | 232.6 Å² | 240.9 Å² | 230.7 Å² and 230.9 Å² | collision cross section (N2) ([M+H2O-H]-): 243.9 Å²; collision cross section (N2) ([M+Na-2H]-): 231.5 Å² and 231.8 Å²
10 | CCCCCCCC/C=C\CCCCCCCCCCCCCC(=O)[O-] [NERVONATE] | – | 204.4 Å² | 197.5 Å² | –
11 | NC(=O)c1ccc[n+]([C@@H]2O[C@H](COP(=O)([O-])O)[C@@H](O)[C@H]2O)c1 [NICOTINAMIDE MONONUCLEOTIDE] | 166 Å² | – | – | –
12 | Nc1ncnc2c1ncn2[C@@H]1O[C@H](COP(=O)(O)OP(=O)([O-])OC[C@H]2O[C@@H]([n+]3cccc(C(=O)O)c3)[C@H](O)[C@@H]2O)[C@@H](O)[C@H]1OP(=O)(O)O [NICOTINIC ACID ADENINE DINUCLEOTIDE PHOSPHATE] | 230.4 Å² | – | 230.3 Å² | –
13 | NC[C@H](O)c1ccc(O)c(O)c1 [NORADRENALINE] | – | – | 134.2 Å² | collision cross section (N2) ([M-H2O+H]+): 137.2 Å²
14 | NCCCNCCCN [NORSPERMIDINE] | 127.6 Å² | 132.4 Å² | – | –
15 | NCCOP(=O)(O)O [O-PHOSPHOETHANOLAMINE] | – | – | 123.2 Å² | –
16 | NC[C@H](O)c1ccc(O)cc1 [P-OCTOPAMINE] | – | 147.3 Å² | – | –
17 | CCCCCCCCCCCCCCCC(=O)O [PALMITATE] | – | 173.2 Å² | – | –

Row | Structure (SMILES) | collision cross section (N2) ([M+H]+) | collision cross section (N2) ([M+Na]+) | collision cross section (N2) ([M-H]-) | further results
18 | CCCCCCCCCCC/C=C\CCCCC(=O)[O-] [PETROSELINATE] | – | – | 175.6 Å² | –
19 | O=P(O)(O)OC1C(OP(=O)(O)O)C(OP(=O)(O)O)C(OP(=O)(O)O)C(OP(=O)(O)O)C1OP(=O)(O)O (configuration not stated) [PHYTATE] | 215.8 Å² | – | 195.4 Å² | collision cross section (N2) ([M+Na-2H]-): 201.3 Å²
20 | c1ncc2[nH]cnc2n1 [PURINE] | 121.9 Å² | – | 114.3 Å² | –
21 | Cc1ncc(CO)c(C=O)c1O [PYRIDOXAL] | 131.4 Å² | 142.8 Å² | 129 Å² | –
22 | OC[C@H]1O[C@H](OC[C@H]2O[C@H](O[C@]3(CO)O[C@H](CO)[C@@H](O)[C@@H]3O)[C@H](O)[C@@H](O)[C@@H]2O)[C@H](O)[C@@H](O)[C@H]1O [RAFFINOSE] | – | 208.9 Å² | 197.3 Å² | –
23 | C[C@@H]1OC(O)[C@H](O)[C@H](O)[C@H]1O (some centres not stated) [RHAMNOSE] | – | 142.6 Å² | – | –
24 | OC1OC[C@@H](O)[C@@H](O)[C@H]1O (some centres not stated) [RIBOSE] | – | 135.2 Å² | – | –
25 | O=C(/C=C/c1ccc(O)c(O)c1)O[C@@H](Cc1ccc(O)c(O)c1)C(=O)O [ROSMARINATE] | – | – | 172.7 Å² | –
26 | C[C@@H]1NCCc2cc(O)c(O)cc21 [SALSOLINOL] | 142.7 Å² | – | 139.4 Å² | –
27 | NCC[Se][Se]CCN [SELENOCYSTAMINE] | 135.6 Å² | 138.6 Å² | – | –
28 | OC[C@@H](O)[C@@H](O)[C@H](O)[C@@H](O)CO [SORBITOL] | – | 142.9 Å² | 131.4 Å² | –
29 | NCCCCNCCCN [SPERMIDINE] | 131.4 Å² and 131.6 Å² | 136.1 Å² and 136.5 Å² | – | –
30 | OC[C@H]1O[C@H](OC[C@H]2O[C@H](OC[C@H]3O[C@H](O[C@]4(CO)O[C@H](CO)[C@@H](O)[C@@H]4O)[C@H](O)[C@@H](O)[C@@H]3O)[C@H](O)[C@@H](O)[C@H]2O)[C@H](O)[C@@H](O)[C@H]1O [STACHYOSE] | – | 235.1 Å² | 224.1 Å² | –
31 | NCCS(=O)(=O)O [TAURINE] | 128.2 Å² and 134.2 Å² | – | 118.4 Å² | –
32 | CSc1ncnc2nc[nH]c12 [THIOPURINE S-METHYLETHER] | 129.8 Å² | 145.1 Å² | 127.7 Å² | –
33 | Cc1c[nH]c(=O)[nH]c1=O [THYMINE] | 122.1 Å² | – | 119 Å² | –

Now from value to molecule, other results behind:

Row | collision cross section (N2) ([M+H]+) | collision cross section (N2) ([M+Na]+) | collision cross section (N2) ([M-H]-) | Structure (SMILES) | further results
34 | 136.7 Å² | 151.1 Å² | 133.9 Å² | O=C(O)c1cc(=O)c2ccccc2[nH]1 [KYNURENATE] | –
35 | 132.9 Å² | – | – | C[N+](C)(C)C[C@H](O)CC(=O)[O-] [L-CARNITINE] | –
36 | 127.7 Å² | – | – | NCCC[C@H](N)C(=O)O [L-ORNITHINE] | –
37 | – | 213.1 Å² | 206.6 Å² | C[C@H](CCC(=O)NCCS(=O)(=O)O)[C@H]1CC[C@H]2[C@@H]3CC[C@@H]4C[C@H](O)CC[C@]4(C)[C@H]3CC[C@]12C [LITHOCHOLYLTAURINE] | –
38 | 131.2 Å² and 131.4 Å² | 135.5 Å² | 133.5 Å² and 133.7 Å² | NCCCC[C@H](N)C(=O)O [LYSINE] | –
39 | – | 139.3 Å² | 131 Å² | CC(=O)N[C@@H](CC(=O)O)C(=O)O [N-ACETYLASPARTATE] | –
40 | – | 140.9 Å² | – | CC(=O)N[C@@H](CS)C(=O)O [N-ACETYLCYSTEINE] | –
41 | – | 133 Å² | – | CC(=O)NCC(=O)O [N-ACETYLGLYCINE] | –
42 | – | 150.1 Å² | 142.6 Å² | CSCC[C@H](NC(C)=O)C(=O)O [N-ACETYLMETHIONINE] | –
43 | – | 145.3 Å² | 136.1 Å² | CSCC[C@H](NC=O)C(=O)O [N-FORMYL-L-METHIONINE] | –
44 | 136 Å² | – | 132 Å² | CCCC[C@H](N)C(=O)O [NORLEUCINE] | –
45 | 130.5 Å² | – | – | CC(=O)OC[C@H](N)C(=O)O [O-ACETYLSERINE] | –
46 | – | 140.8 Å² | – | N[C@@H](COP(=O)(O)O)C(=O)O [O-PHOSPHOSERINE] | –
47 | 145.9 Å² | 145.7 Å² | – | N[C@@H](CCOC(=O)CCC(=O)O)C(=O)O [O-SUCCINYL-HOMOSERINE] | collision cross section (N2) ([M+Na-2H]-): 145.8 Å²
48 | – | – | 120.9 Å² | O=C(O)CCC(=O)C(=O)O [OXOGLUTARATE] | –
49 | 129.9 Å² | – | – | CC(C)(CO)[C@@H](O)C(=O)NCCC(=O)O [PANTOTHENATE] | –
50 | – | – | 127.5 Å² | N[C@@H](COP(=O)(O)O)C(=O)O [PHOSPHOSERINE] | collision cross section (N2) ([M+Na-2H]-): 135.1 Å²
51 | 127.7 Å² and 128 Å² | 138.8 Å² and 139.4 Å² | 128.3 Å² and 128.9 Å² | O=C(O)C1CCCCN1 (configuration not stated) [PIPECOLATE] | –
52 | – | – | 113.8 Å² | O=C(O)c1ccc[nH]1 [PYRROLE-2-CARBOXYLATE] | –
53 | 132.3 Å² | – | 126.6 Å² | O=C(O)c1cccnc1C(=O)O [QUINOLINATE] | –
54 | – | 139.4 Å² and 143.3 Å² | – | OCC1(O)OC[C@H](O)[C@@H](O)[C@@H]1O (some centres not stated) [SORBOSE] | –
55 | – | 161.6 Å² | 154.1 Å² | Cc1cn([C@H]2C[C@H](O)[C@@H](CO)O2)c(=O)[nH]c1=O [THYMIDINE] | –
